Measured values taken from patent publication US10485256B2, “Stevia sweetener with improved solubility with a cyclodextrin” (EPC Natural Products Co., Ltd., priority 2014, dated 2019).

Key:
[1] = Stability test: period that the system remains in solution form, without precipitation; assay type: physicochemical; settings: 25° C.; for stability (period the system remain a solution form, without precipitation): Concentration 1 weight %
Method: Concentration of RA was weight (g) in 100 g of water.
The stability test was performed at ambient temperature (25° C.), and was in water.
The acidic aqueous conditions were formulated with citric acid and water, and the pH was 3.0.
Concentration of RA+RD was weight (g) in 100 g of water.
The stability test was performed at ambient temperature (25° C.) and was in water.
Concentration of RA+RB+RD was weight (g) in 100 g of water.
Concentration of RB or RD was weight (g) in 100 g of water.

[2] = Dissolution property at room temperature; assay type: physicochemical; settings: concentration 1%; without a solublizer (no cyclodextrin); water
[3] = γ-cyclodextrin mole ratio 1, water

Row | stability (period the system remains in solution form, without precipitation) ([1]; acidic (citric acid, pH 3.0), RA 3.5 weight %, γ-cyclodextrin mole ratio 1) | stability (period the system remains in solution form, without precipitation) ([1]; neutral, RA 3 weight %, γ-cyclodextrin mole ratio 0.5, water) | stability (period the system remains in solution form, without precipitation) ([1]; neutral, RA 3 weight %, γ-cyclodextrin mole ratio 0.6, water) | stability (period the system remains in solution form, without precipitation) ([1]; neutral, RA 3 weight %, γ-cyclodextrin mole ratio 0.7, water) | stability (period the system remains in solution form, without precipitation) ([1]; neutral, RA 3 weight %, γ-cyclodextrin mole ratio 0.8, water) | stability (period the system remains in solution form, without precipitation) ([1]; neutral, RA 3 weight %, γ-cyclodextrin mole ratio 0.85, water) | stability (period the system remains in solution form, without precipitation) ([1]; neutral, RA 3.5 weight %, γ-cyclodextrin mole ratio 0, water) | stability (period the system remains in solution form, without precipitation) ([1]; neutral, RA 3.5 weight %, γ-cyclodextrin mole ratio 0.85, water) | stability (period the system remains in solution form, without precipitation) ([1]; neutral, RA 3.5 weight %, γ-cyclodextrin mole ratio 1, water) | stability (period the system remain a solution form, without precipitation) [1, 3] | formation of a solution [2] | Molecule
1 | 120 h | 1 h | 2 h | 24 h | 52 h | 92 h | 2 h | 160 h | 336 h | – | – | C=C1C[C@@]23CC[C@H]4[C@@](C)(CCC[C@@]4(C)C(=O)O[C@@H]4O[C@H](CO)[C@@H](O)[C@H](O)[C@H]4O)[C@@H]2CC[C@]1(O[C@@H]1O[C@H](CO)[C@@H](O)[C@H](O[C@@H]2O[C@H](CO)[C@@H](O)[C@H](O)[C@H]2O)[C@H]1O[C@@H]1O[C@H](CO)[C@@H](O)[C@H](O)[C@H]1O)C3 [RA, Rebaudioside A]
2 | – | – | – | – | – | – | – | – | – | 48 h | did not form a solution | C=C1C[C@@]23CC[C@H]4[C@@](C)(CCC[C@@]4(C)C(=O)O[C@@H]4O[C@H](CO)[C@@H](O)[C@H](O)[C@H]4O[C@@H]4O[C@H](CO)[C@@H](O)[C@H](O)[C@H]4O)[C@@H]2CC[C@]1(O[C@@H]1O[C@H](CO)[C@@H](O)[C@H](O[C@@H]2O[C@H](CO)[C@@H](O)[C@H](O)[C@H]2O)[C@H]1O[C@@H]1O[C@H](CO)[C@@H](O)[C@H](O)[C@H]1O)C3 [RD, Rebaudioside D]
3 | – | – | – | – | – | – | – | – | – | 0.333 h | did not form a solution | Rebaudioside B [RB]
